Laboratory results: the supplement of paper PMC12494721

Key:
Conditions in all cases: incubation time: 27 h, anaerobic, 37 °C
[1] = test system: Ruminococcus gnavus DSM 108212; assay: fold change of 2-Phenylethylamine concentration vs plate DMSO controls (fold change (ratio)); higher = more amine produced
[2] = test system: Klebsiella aerogenes DSM 30053; assay: fold change of Histamine concentration vs plate DMSO controls (fold change (ratio)); higher = more amine produced
Protocol: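 Dose-response follow-up: bacteria (E. coli IAI1, K. aerogenes DSM 30053, C. sporogenes DSM 1664, R. gnavus DSM 108212) were grown anaerobically in mGAM at 37 °C for 27 h with compound at 0.6125-20 µM. Amines were measured in the whole culture by targeted LC-MS/MS. Metabolite fold change and OD595 fold change are relative to plate DMSO controls; n=2 biological replicates. OD fold changes are not clipped, so slightly negative values mean no growth.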

[3] = test system: Klebsiella aerogenes DSM 30053; assay: fold change of Cadaverine concentration vs plate DMSO controls (fold change (ratio)); higher = more amine produced
Escherichia coli IAI1 [4] = assay: as above
[5] = test system: Ruminococcus gnavus DSM 108212; assay: fold change of Tryptamine concentration vs plate DMSO controls (fold change (ratio)); higher = more amine produced
[6] = test system: Clostridium sporogenes DSM 1664; assay: as above
[7] = test system: Ruminococcus gnavus DSM 108212; assay: growth (OD595) fold change vs plate DMSO controls (fold change (ratio)); higher = more growth
[8] = test system: Clostridium sporogenes DSM 1664; assay: as above
[9] = test system: Klebsiella aerogenes DSM 30053; assay: as above
Escherichia coli IAI1 [10] = assay: as above
[11] = test system: Klebsiella aerogenes DSM 30053; assay: fold change of Putrescine concentration vs plate DMSO controls (fold change (ratio)); higher = more amine produced
Escherichia coli IAI1 [12] = assay: as above

CCn1cc(C(=O)O)c(=O)c2cc(F)c(N3CCNCC3)nc21 [Enoxacin]
Conditions | fold change of 2-Phenylethylamine concentration | fold change of Cadaverine concentration | fold change of Histamine concentration | fold change of Putrescine concentration | fold change of Tryptamine concentration | growth
Escherichia coli IAI1 [4], 0.6125 µM | – | 1.43 | – | – | – | –
Escherichia coli IAI1 [4], 1.25 µM | – | 1.6 | – | – | – | –
Escherichia coli IAI1 [4], 2.5 µM | – | 1.14 | – | – | – | –
Escherichia coli IAI1 [4], 5 µM | – | 0.433 | – | – | – | –
Escherichia coli IAI1 [4], 10 µM | – | 0.292 | – | – | – | –
Escherichia coli IAI1 [4], 20 µM | – | 0.278 | – | – | – | –
Escherichia coli IAI1 [10], 0.6125 µM | – | – | – | – | – | 0.893
Escherichia coli IAI1 [10], 1.25 µM | – | – | – | – | – | -0.0647
Escherichia coli IAI1 [10], 2.5 µM | – | – | – | – | – | -0.041
Escherichia coli IAI1 [10], 5 µM | – | – | – | – | – | 0.063
Escherichia coli IAI1 [10], 10 µM | – | – | – | – | – | 0.0275
Escherichia coli IAI1 [10], 20 µM | – | – | – | – | – | -0.0283
Escherichia coli IAI1 [12], 0.6125 µM | – | – | – | 0.829 | – | –
Escherichia coli IAI1 [12], 1.25 µM | – | – | – | 0.362 | – | –
Escherichia coli IAI1 [12], 2.5 µM | – | – | – | 0.557 | – | –
Escherichia coli IAI1 [12], 5 µM | – | – | – | 0.832 | – | –
Escherichia coli IAI1 [12], 10 µM | – | – | – | 0.916 | – | –
Escherichia coli IAI1 [12], 20 µM | – | – | – | 0.993 | – | –
[1], 0.6125 µM | 0.788 | – | – | – | – | –
[1], 1.25 µM | 1.01 | – | – | – | – | –
[1], 2.5 µM | 1.5 | – | – | – | – | –
[1], 5 µM | 1.16 | – | – | – | – | –
[1], 10 µM | 1.04 | – | – | – | – | –
[1], 20 µM | 1.15 | – | – | – | – | –
[2], 0.6125 µM | – | – | 0.971 | – | – | –
[2], 1.25 µM | – | – | 1.17 | – | – | –
[2], 2.5 µM | – | – | 1.18 | – | – | –
[2], 5 µM | – | – | 0.54 | – | – | –
[2], 10 µM | – | – | 0.252 | – | – | –
[2], 20 µM | – | – | 0.329 | – | – | –
[3], 0.6125 µM | – | 0.977 | – | – | – | –
[3], 1.25 µM | – | 0.984 | – | – | – | –
[3], 2.5 µM | – | 0.985 | – | – | – | –
[3], 5 µM | – | 1.01 | – | – | – | –
[3], 10 µM | – | 0.999 | – | – | – | –
[3], 20 µM | – | 0.994 | – | – | – | –
[5], 0.6125 µM | – | – | – | – | 0.907 | –
[5], 1.25 µM | – | – | – | – | 1.03 | –
[5], 2.5 µM | – | – | – | – | 1.98 | –
[5], 5 µM | – | – | – | – | 1.5 | –
[5], 10 µM | – | – | – | – | 1.3 | –
[5], 20 µM | – | – | – | – | 1.47 | –
[6], 0.6125 µM | – | – | – | – | 0.988 | –
[6], 1.25 µM | – | – | – | – | 0.965 | –
[6], 2.5 µM | – | – | – | – | 0.972 | –
[6], 5 µM | – | – | – | – | 0.712 | –
[6], 10 µM | – | – | – | – | 0.133 | –
[6], 20 µM | – | – | – | – | 0.0376 | –
[7], 0.6125 µM | – | – | – | – | – | 0.917
[7], 1.25 µM | – | – | – | – | – | 1.07
[7], 2.5 µM | – | – | – | – | – | 0.725
[7], 5 µM | – | – | – | – | – | 0.638
[7], 10 µM | – | – | – | – | – | 0.638
[7], 20 µM | – | – | – | – | – | 0.488
[8], 0.6125 µM | – | – | – | – | – | 1.15
[8], 1.25 µM | – | – | – | – | – | 1.19
[8], 2.5 µM | – | – | – | – | – | 1.06
[8], 5 µM | – | – | – | – | – | 0.904
[8], 10 µM | – | – | – | – | – | 0.245
[8], 20 µM | – | – | – | – | – | 0.00474
[9], 0.6125 µM | – | – | – | – | – | 0.845
[9], 1.25 µM | – | – | – | – | – | 1.25
[9], 2.5 µM | – | – | – | – | – | 0.554
[9], 5 µM | – | – | – | – | – | 0.373
[9], 10 µM | – | – | – | – | – | 0.469
[9], 20 µM | – | – | – | – | – | 0.328
[11], 0.6125 µM | – | – | – | 1.03 | – | –
[11], 1.25 µM | – | – | – | 1.06 | – | –
[11], 2.5 µM | – | – | – | 1.2 | – | –
[11], 5 µM | – | – | – | 1.27 | – | –
[11], 10 µM | – | – | – | 1.3 | – | –
[11], 20 µM | – | – | – | 1.34 | – | –

COc1c(N2CCNC(C)C2)c(F)cc2c(=O)c(C(=O)O)cn(C3CC3)c12 (centres undefined) [Gatifloxacin]
Conditions | fold change of 2-Phenylethylamine concentration, [1] | fold change of Cadaverine concentration, [3] | fold change of Histamine concentration, [2] | fold change of Putrescine concentration, [11] | fold change of Tryptamine concentration, [5] | growth, [7] | growth, [9]
0.6125 µM | 1.35 | 0.983 | 1.35 | 1.03 | 1.31 | 0.932 | 0.993
1.25 µM | 1.33 | 1.03 | 0.852 | 1.2 | 1.5 | 0.65 | 0.605
2.5 µM | 1.67 | 1.02 | 0.158 | 1.26 | 2.2 | 0.553 | 0.302
5 µM | 2.18 | 0.999 | 0.193 | 1.35 | 2.87 | 0.484 | 0.348
10 µM | 1.22 | 1 | 0.284 | 1.4 | 1.85 | 0.3 | 0.373
20 µM | 0.23 | 0.997 | 0.4 | 1.24 | 0.434 | 0.107 | 0.242
